Broadly, the melting point is the temperature, or range, at which the solid turns liquid. One may read the IC50 as the midpoint of a concentration-inhibition curve. Read a low IC50 as greater potency in that assay.

Structures are written as SMILES.

System in the first data set: not given
Assay: not given
Details: not given
Turning to `C[C@H]1O[C@H](n2c(Cl)nc3cc(Cl)c(Cl)cc32)[C@@H](O)[C@H]1O` [Example 72, 2,5,6-Trichloro-1-(5-deoxy-α-D-lyxofuranosyl)1H-benzimidazole], the melting point was in the range of 120 to 122 °C.
Compound `CC(C)Nc1nc2cc(F)c(F)c(F)c2n1[C@@H]1O[C@H](C)[C@@H](O)[C@H]1O` [Example 20, 5,6,7-Trifluoro-1-(5-deoxy-beta-D-ribofuranosyl)-N-(1-methylethyl)1H-benzimidazol-2-amine] returned a melting point of 175 to 178 °C.
`CC(=O)O[C@@H]1[C@H](OC(C)=O)[C@@H](C)O[C@H]1n1c(Cl)nc2c(Br)c(Cl)c(Cl)cc21` [Example 70, 4-Bromo-2,5,6-trichloro-1-(2,3-di-O-acetyl-5-deoxy-beta-D-ribofuranosyl)-1H-benzimidazole] came in with a melting point of 138 to 141 °C.
`CC(C)Nc1nc2c(F)c(F)c(F)cc2n1[C@@H]1O[C@H](C)[C@@H](O)[C@H]1O` [Example 19, 4,5,6-Trifluoro-1-(5-deoxy-beta-D-ribofuranosyl)-N-(1-methylethyl)-1H-benzimidazol-2-amine] gave a melting point of 148 to 151 °C.
`CC(=O)O[C@@H]1[C@H](OC(C)=O)[C@@H](C)O[C@H]1n1c(Br)nc2c(Br)c(Cl)c(Cl)cc21` [Example 71, 2,4-Dibromo-5,6-dichloro-1-(2,3-di-O-acetyl-5-deoxy-beta-D-ribofuranosyl)-1H-benzimidazole]: the melting point is 152 to 154 °C.
In turn, `CC(=O)O[C@@H]1[C@H](OC(C)=O)[C@@H](C)O[C@H]1n1c(Cl)nc2c(Cl)c(Cl)c(Cl)cc21` [Example 68, 2,4,5,6-Tetrachloro-1-(2,3-di-O-acetyl-5-deoxy-beta-D-ribofuranosyl)-1H-benzimidazole] returned a melting point of 126 to 127 °C.
`C[C@H]1O[C@@H](n2c(Br)nc3cc(Cl)c(Cl)cc32)[C@H](O)[C@@H]1O` (hydrate or solvate) [Example 4, 2-Bromo-5,6-dichloro-1-(5-deoxy-beta-D-ribofuranosyl)-1H-benzimidazole] displayed a melting point of 133 to 135 °C.
In the case of `CC(=O)O[C@@H]1[C@H](OC(C)=O)[C@@H](C)O[C@H]1n1c(Br)nc2c(Cl)c(Cl)c(Cl)cc21` [Example 69, 2-Bromo4,5,6-trichloro-1-(2,3-di-O-acetyl-5-deoxy-beta-D-ribofuranosyl)-1H-benzimidazole], the melting point lay within 160 to 162 °C.
Same read-out and setting: to `C[C@H]1O[C@@H](n2c(Br)nc3cc(Cl)c(Cl)cc32)[C@H](O)[C@@H]1O` [Example 73, 2-Bromo-5,6-dichloro-1-(5-deoxy-β-D-ribofuranosyl)benzimidazole] belongs 145 to 148 °C.

The next data set relates to HCMV strain AD169. The data set can be described thus: Human Cytomegalovirus Assay. As to conditions: Human betaherpesvirus 5, 120 h; HCMV strain AD169 on MRC5 cell monolayers, 5 days, HCMV DNA by blotting and hybridization. It counts as cell-based. The protocol: HCMV strain AD169 was grown on monolayers of human embryonic lung cells (MRC5 cells) in 96 well plates. After infection of the cells at a ratio of approximately 0.01 infectious virus particles per cell; the compounds to be tested were added to selected wells at six different concentrations, each in triplicate. The same concentrations of compounds were also applied to wells containing monolayers of uninfected cells in order to assess compound cytotoxicity. The plates were incubated for 5 days, and the minimum cytotoxic dose was estimated from microscopic examination. The IC50 for antiviral effect was estimated from measurements of HCMV DNA in each well by blotting and quantitative specific DNA hybridization, similar to the method of Gadler (Antimicrob. Agents Chemother. 1983, 24, 370-374).
For the compound `CC(C)Nc1nc2c(Cl)cc(Cl)cc2n1[C@@H]1O[C@H](C)[C@@H](O)[C@H]1O` [Example 9, 4,6-Dichloro-1-(5-deoxy-beta-D-ribofuranosyl)-N-(1-methylethyl)-1H-benzimidazol-2-amine], the IC50 turned out to be 6.9 µM.
On the same count and under the same terms, next, `CC(C)Nc1nc2ccc(Cl)cc2n1[C@@H]1O[C@H](C)[C@@H](O)[C@H]1O` [Example 50, 6-Chloro-1-(5-deoxy-β-D-ribofuranosyl)-N-(1-methylethyl)-1H-benzimidazol-2-amine]: 7 µM.
`CC(C)Nc1nc2c(Cl)c(Cl)ccc2n1[C@@H]1O[C@H](C)[C@@H](O)[C@H]1O` [Example 12, 4,5-Dichloro-1-(5deoxy-beta-D-ribofuranosyl)-N-(1-methylethyl)-1H-benzimidazol-2-amine] came in with an IC50 of 3.5 µM.
In turn, `C[C@H]1O[C@@H](n2c(NC3CC3)nc3cc(Cl)c(Cl)cc32)[C@H](O)[C@@H]1O` [Example 59, 5,6-Dichloro-1-(5-deoxy-beta-D-ribofuranosyl)-N-(cyclopropyl)-1H-benzimidazol-2-amine] displayed an IC50 of 1.1 µM.
In the case of `CC(C)Nc1nc2cc(C(F)(F)F)ccc2n1[C@@H]1O[C@H](C)[C@@H](O)[C@H]1O` [Example 44, 5-Trifluoromethyl-1-(5-Deoxy-beta-D-ribofuranosyl)-N-(1-methylethyl)-1H-benzimidazol-2-amine], half-maximal inhibition (IC50) was put at 7 µM. This IC50 lies about 6.4-fold higher than the previous one.
As for `CC(C)Nc1nc2ccc(C(F)(F)F)cc2n1[C@@H]1O[C@H](C)[C@@H](O)[C@H]1O` [Example 46, 6-trifluoromethyl-1-(5-Deoxy-beta-D-ribofuranosyl)-N-(1-methylethyl)-1H-benzimidazol-2-amine], the IC50 turned out to be 6.1 µM.

Values taken from US6413938B1, “Benzimidazole derivatives for the treatment of viral infections” (The Regents of the University of Michigan, priority 1997, dated 2002).
